Common to all, as to assay: NCI anticancer screen, dose series, 48 h
Assay [1] relates to KM12 colon.
The subject of assay [2] is KM20L2 colon.
Assay [3] relates to LOX IMVI melanoma.
Assay [4] has as its system OVCAR-3 ovarian.
For assay [5], the system named is OVCAR-8 ovarian.
Assay [6] has as its system SNB-75 CNS.
Assay [7] deals with SR leukemia.
The test system of assay [8] is UACC-62 melanoma.
The test system of assay [9] is XF 498 CNS.
Assay [10] relates to MDA-MB-435.

The structures appear in SMILES notation. Where “and” joins values, the source holds several entries; their conditions need not be identical. Equal values may be shown once.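 Growth conditions: 96-well plates. Treatment: test compound, 48 hours, 5 concentrations. Analysis: linear interpolation between bracketing concentrations; unreached endpoints set to highest concentration. At the GI50, growth is halved. Definition used: TGI = concentration required for complete inhibition of growth.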 Where only a bound is given, the exact number is not on record here.

Regarding `CC(=O)OC12C(C)=C(C)C(=O)N1c1ccccc1N2C(C)=O` (configuration not stated), the TGI in assay [1], in assay [2], in [3], in assay [4], in assay [5] and in assay [6] was above 100 µM throughout. In addition, the TGI in [7], in assay [8] and in assay [9] was above 100 µM in each case.

Turning to `COc1ccc(CC(=O)NCCc2ccc(OC)c(OC)c2OC)cc1`, the TGI in [1], in assay [2], in [5], in assay [6], in [7] and in assay [9] was above 100 µM throughout.

In the case of `O=C1c2ccccc2-c2c3c(cc4ccnc1c24)OCO3`, the TGI is above 100 µM in assay [1]; > 100 µM and 60.9 µM in assay [2]; 58.4 µM and 15 µM in [3]; 60.4 µM and 48.9 µM in assay [4]; 27.7 µM and 25.5 µM in assay [5]; 26.3 µM and 21.1 µM in assay [6]. For the same compound, the TGI in assay [8] was 69.2 µM and 8.07 µM; in assay [9] it was 21.1 µM and 22.1 µM.

As to `CC(Oc1ccc2c(-c3ccc(Cl)cc3)cc(=O)oc2c1)C(=O)O` (configuration not stated), the TGI in assay [1], in [2], in assay [3], in assay [4], in [5] and in assay [6] was above 100 µM in each case. The TGI in [7], in assay [8] and in [9] was above 100 µM in each case.

Consider `CC(C)(C)C(=O)N1C(C(=O)O)Cc2ccccc2[C@@H]1Cc1ccccc1` (some centres not stated), for which the TGI in [1], in [2], in assay [4], in assay [5], in assay [6] and in assay [8] was above 100 µM throughout. For the same compound, the TGI in assay [9] is above 100 µM.

With `CCN(CC)CCN(CC)CC.CCN(CC)CCN(CC)CC.[Cu+2].[Cu+2].[O-][Cl+3]([O-])([O-])[O-].[OH3+].[OH3+]`, the GI50 in assay [1] is 18200 nM; in assay [2], 23.9 µM; in assay [3] it was 14400 nM; in [4], 23.9 µM; in assay [5] it was above 100 µM; in [6] it was 23600 nM. Moreover, the GI50 was above 100000 nM in assay [7] and 18300 nM in assay [8]. For the same compound, the TGI in assay [1] is 34.2 µM; in assay [2], 61.4 µM; in [3] it was 45.7 µM; in assay [4], 55.8 µM; in assay [5] it was above 100 µM; in [6], 39.4 µM. In addition, the TGI in assay [7] is above 100 µM; in assay [8], 36.4 µM.

Turning to `O=[N+]([O-])c1nccn1CC(O)c1ccccc1` (configuration not stated), the TGI in assay [1], in assay [2], in assay [3], in assay [4], in assay [5] and in assay [6] was above 100 µM throughout. Also, the TGI in assay [8] and in assay [9] was above 100 µM each time.

For the compound `CCOC(=O)C1(C(=O)OCC)C(C(C)(C)C)=C(C)c2ccccc21`, the TGI came to 25.9 µM in assay [1]; 28.2 µM in assay [2]; 25 µM in assay [3]; 24.9 µM in assay [4]; 66.1 µM in [5]; 61.8 µM in [6]. Moreover, the TGI in assay [7] is above 100 µM; in [8] it was 26 µM; in [9] it was 26.3 µM.

In the case of `CC(C)(C)C1=CC(=N/N=c2\scc(-c3ccccc3)n2-c2ccccc2)C=C(C(C)(C)C)C1=O`, the TGI in assay [1], in [2], in assay [3], in assay [4], in assay [5] and in assay [6] was above 100 µM throughout. For the same compound, the TGI in assay [7], in assay [8] and in assay [9] was above 100 µM in each case.

Consider `COc1ccc(/C=C/c2cc(OC)c(OC(C)=O)c(OC)c2)cc1`, for which the TGI in assay [2] was above 100 µM; in [4], above 100 µM; in assay [5], above 100 µM; in assay [6] it was 60.5 µM; in [8] it was 42.8 µM; in assay [9] it was above 100 µM.

In the case of `O=C(CC1(O)C(=O)Nc2c(Cl)cc(Cl)cc21)c1ccccc1` (configuration not stated), the TGI in assay [2], in assay [3], in [4], in [5], in [6] and in assay [8] was above 100 µM each time. In assay [9], this compound showed a TGI above 100 µM.

On to `O=C(C[n+]1ccccc1)N/N=C(/CCC(=O)N(Cc1ccccc1)Cc1ccccc1)CC(=O)c1ccccc1`, for which the TGI in assay [1], in [2], in assay [3], in assay [4], in [5] and in [6] was above 100 µM in each case. The TGI in assay [7] and in assay [8] was above 100 µM throughout.

With `COc1ccc(C(=O)C2CCC(C(=O)O)C2)cc1` (configuration not stated), the TGI in [1], in assay [2], in assay [3], in assay [4], in assay [5] and in [6] was above 100 µM each time. The TGI in assay [7] and in assay [8] was above 100 µM each time.

With `COC(=O)CCC(=O)Nc1ccc(Cl)cc1C`, the TGI in assay [1], in [2], in assay [3], in assay [4], in [5] and in assay [6] was above 100 µM each time. In addition, the TGI in assay [7], in assay [8] and in assay [9] was above 100 µM each time.

For the compound `CSC(=NC(=O)c1ccccc1Cl)SCCSC(=NC(=O)c1ccccc1Cl)SC`, the TGI in [1], in [2], in assay [3], in assay [4], in [5] and in assay [6] was above 100 µM in each case. In addition, the TGI in [8] and in assay [9] was above 100 µM each time.

For the compound `CCC[CH2][Sn](=[O])[CH2]CCC`, the GI50 in [1] was above 50000 nM; in assay [2], above 50 µM; in assay [3], above 50000 nM; in assay [4], above 50 µM; in assay [5] it was above 50 µM; in assay [6] it was above 39700 nM. The GI50 in assay [7] and in assay [8] was above 50000 nM each time. Also, the TGI in assay [1], in assay [2], in [3], in assay [4], in [5] and in assay [6] was above 50 µM each time. Also, the TGI in [7] and in assay [8] was above 50 µM each time.

With `COc1cc2nc(N3CCCN(C)CC3)nc(NC3CCN(Cc4ccccc4)CC3)c2cc1OC`, the GI50 in [1] was 3070 nM; in assay [3], 1680 nM; in assay [10], 1740 nM; in assay [4], 3.17 µM; in [5] it was 3.26 µM; in assay [6] it was 1400 nM. For the same compound, the GI50 in assay [7] was 2230 nM; in assay [8], 1890 nM. In addition, the TGI in assay [1] amounted to 9.82 µM; in assay [3], 3.28 µM; in assay [10], 3.22 µM; in assay [4], 9.41 µM; in assay [5], 11.8 µM; in assay [6], 4.55 µM. Besides, the TGI in assay [7] was determined as 6.66 µM; in assay [8], 3.56 µM.

Consider `Cc1ccc(S(=O)(=O)ON2C(=O)c3cccc4cc([N+](=O)[O-])cc(c34)C2=O)cc1`, for which the TGI in assay [1], in assay [3], in [10], in assay [4], in [5] and in assay [6] was above 100 µM each time. Besides, the TGI in [7] and in [8] was above 100 µM throughout.

Regarding `NC(=S)N1N=C2CCCCCC[C@@H]2[C@H]1c1ccccc1`, the TGI in [1], in assay [2], in assay [3], in [4], in assay [5] and in assay [6] was above 100 µM each time. The TGI in assay [8] is above 100 µM; in assay [9] it was 76.5 µM.

Regarding `CC1(C)N=C(N)N=C(N)N1c1ccc(CNC(=O)Nc2ccc(S(=O)(=O)F)c(Cl)c2)c(Cl)c1`, the GI50 in [1] was 589 nM; in assay [3], 396 nM; in assay [10] it was 183 nM; in assay [4], 6.34 µM; in [5] it was 2.08 µM; in [6], 3470 nM. The GI50 is 167 nM in assay [7] and 303 nM in assay [8]. Besides, the TGI in [1], in assay [3], in assay [10], in [4], in assay [5] and in [6] was above 100 µM in each case. The TGI in assay [7] and in assay [8] was above 100 µM each time.

`COc1cc(CCC[P+](c2ccccc2)(c2ccccc2)c2ccccc2)c(OC)c2c1OCO2`: the GI50 in assay [1] is 828 nM; in [3] it was 2480 nM; in assay [10] it was 494 nM; in [4], 0.633 µM; in [5], 2.36 µM; in [6], 1200 nM. The GI50 in assay [7] is 1100 nM; in assay [8] it was 629 nM. Moreover, the TGI in assay [1] is 6.59 µM; in [3], 12.1 µM; in assay [10], 5.91 µM; in assay [4], 10.7 µM; in [5] it was 24.2 µM; in [6], 4.59 µM. In addition, the figures for the TGI in [7] and in [8] were 13.3 µM and 4.27 µM, respectively.

With `CCCCCCCCCCCCSC(=S)c1c(C)[nH]n(-c2ccccc2)c1=O`, the TGI is 39.5 µM in assay [2]; above 50 µM in assay [3]; 46.1 µM in assay [4]; above 50 µM in assay [5]; 25.9 µM in [8].

With `Cc1cc2c(F)c(Oc3ncnc(Nc4ccc(N5C[C@@H](C)N[C@@H](C)C5)cc4)c3C#N)cc(F)c2[nH]1`, the GI50 is 2550 nM in assay [1]; 1600 nM in assay [3]; 2030 nM in [10]; 1.75 µM in [4]; 2.8 µM in assay [5]; 1100 nM in assay [6]. Besides, the GI50 was 1630 nM in [7] and 2370 nM in assay [8]. Further, the TGI amounted to 7.3 µM in [1]; 3.08 µM in assay [3]; 4.61 µM in assay [10]; 3.46 µM in assay [4]; 9.11 µM in assay [5]; 3.18 µM in [6]. The TGI was 4.35 µM in assay [7] and 4.89 µM in assay [8].

Turning to `O=C(O)c1cccc(S(=O)(=O)NCCO)c1`, the TGI in assay [1], in [3], in [10], in assay [4], in assay [5] and in assay [6] was above 100 µM in each case. Also, the TGI in assay [7] and in assay [8] was above 100 µM each time.

As to `COc1ccc(Br)cc1NC(=O)Nc1cccc2c1ccn2Cc1ccnc(N)c1`, the GI50 in assay [1] was 2570 nM and 4270 nM; in [3] it was 1830 nM and 2180 nM; in [10], 5420 nM and 5810 nM; in assay [4], 8.98 µM and > 10 µM; in assay [5] it was 5.94 µM and > 10 µM; in assay [6], 2190 nM and 5100 nM. Moreover, the GI50 in [7] was 2510 nM and 3110 nM; in assay [8] it was 6170 nM and 5940 nM. Besides, the TGI in assay [1] was 8.23 µM and > 10 µM; in [3], 3.66 µM and 5.14 µM; in assay [10], 23.5 µM and > 10 µM; in [4], 23.6 µM and > 10 µM; in assay [5] it was 23.3 µM and > 10 µM; in assay [6], 42.8 µM and > 10 µM. Also, the TGI in assay [7] is 15.5 µM and > 10 µM; in assay [8], 21.7 µM and > 10 µM.

`CC(=O)OCc1c(O)c2c([nH]c1=O)CCc1ccccc1-2`: the TGI is 109 µM in assay [1]; 263 µM in [2]; 131 µM in assay [3]; 102 µM in assay [4]; 291 µM in [5]; above 350 µM in assay [7]. The figures for the TGI in assay [8] and in [9] were 119 µM and 104 µM, respectively.

In the case of `CCOC(=O)C12CCCC1(O)N(NC(=O)OC)C(C)=C2C(=O)OC` (configuration not stated), the TGI in [1] is above 10 µM; in [2] it was above 100 µM; in [3] it was above 100 µM; in [4], above 10 µM; in assay [5], above 100 µM; in [8], above 100 µM. For the same compound, the TGI in assay [9] was above 100 µM.
